For 22 molecules, TGI and GI50 results are on record in PubChem BioAssay (NCI).

Test in all cases: NCI-60 cell line screen, 48 h
For test [1], the system named is CCRF-CEM leukemia.
For test [2], the system named is DMS 273 small cell lung.
Test [3] relates to HCC-2998 colon.
Test [4] concerns HOP-18 NSCLC.
The test system of test [5] is LOX IMVI melanoma.
The subject of test [6] is OVCAR-3 ovarian.
Test [7] has as its system SF-539 CNS.
For test [8], the system named is SK-MEL-2 melanoma.
Test [9] has as its system HS 578T breast.
Test [10] has as its system MDA-MB-435.

“And” between values parts separate entries of the source, which are not always exact repeats. Identical values can stand only once.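 A five-concentration, 48-hour dose response in 96-well plates underlies each endpoint, interpolated linearly between surrounding concentrations. At the GI50, growth is halved. TGI: concentration producing complete growth inhibition.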 Where a SMILES comes first, the peptide text is derived from it. The star is where a group is joined. Boc = CC(C)(C)OC(=O)*

As for `COC12OCCN(C)C1=CC(=O)C1=NNC(C)C12` (configuration not stated), the TGI in test [1], in test [2], in [3], in test [4], in test [5] and in test [6] was more than 100 µM each time. Moreover, the TGI in test [7] is more than 100 µM.
Regarding `[N-]=[N+]=N/C1=C/CCCCC(=O)C1`, the TGI in [1], in [2], in [3], in test [5] and in [8] was more than 100 µM each time.
With `C/C(=N\NC(=S)N1CCCCCC1)c1ccccn1`, the TGI in [2] was 1.69 µM and 2.13 µM; in test [3], 2.03 µM and 1.35 µM; in test [4], 0.927 µM and 6.14 µM; in test [9] it was 3.85 µM; in test [5] it was 4.37 µM and 1.37 µM; in test [10] it was 3.92 µM and 1.17 µM. Also, the TGI is 0.172 µM in [6]; 1.74 µM and 2.26 µM in test [7]; 0.569 µM and 1.83 µM in [8]. The GI50 is 0.0374 µM in test [3]; 0.72 µM in test [4]; 0.0703 µM in test [10]; 0.143 µM in [7]; 0.0694 µM in [8].
For `CCN(CC)CCSc1c2ccccc2nc2c(OC)ccc(OC)c12`, the TGI was more than 68.9 µM in [1]; 25 µM in test [2]; more than 36 µM in test [3]; more than 41.2 µM in [5]; more than 33.9 µM in test [7]; more than 23 µM in [8].
As for `O=C1CCC(=O)c2c1c(O)c1ccncc1c2O`, the TGI is 39.4 µM in test [1]; 37.7 µM in test [2]; 29.6 µM in [3]; 60.5 µM in [4]; 27.4 µM in test [5]; 7.24 µM in [6]. Moreover, the TGI in [7] was determined as 29 µM; in test [8], 26.4 µM.
`C=COC(=O)N[C@H]1CCc2cc(OC)c(OC)c(OC)c2-c2ccc(SC)c(=O)cc21`: the TGI is more than 80.1 µM in test [1]; more than 100 µM in [2]; 85.6 µM in [3]; more than 100 µM in test [4]; more than 4.64 µM in test [9]; more than 95.8 µM in test [5]. Besides, the TGI in test [10] was less than 0.01 µM; in [6], 0.0311 µM; in test [7] it was less than 0.0464 µM; in test [8], 1.73 µM.
On to `COC(=O)c1s/c(=N\C(=S)N(C)C)n(-c2ccc(Cl)cc2)c1C(=O)OC`, for which the TGI in [1], in test [2], in test [3], in [5], in [6] and in [7] was more than 100 µM throughout. Further, the TGI in test [8] is more than 100 µM.
As to `Cc1ccc(S(=O)OCc2c(C)c(C)c(COS(=O)c3ccc(C)cc3)c(C)c2C)cc1` (configuration not stated), the TGI in test [2], in test [3], in test [4], in [5], in [6] and in [7] was more than 100 µM throughout.
Turning to `CCOC(=O)c1ccc(N=Nc2cc(C(=O)OCC)ccc2O)cc1`, the TGI in test [1], in test [2], in [4], in test [5] and in [7] was more than 100 µM each time.
Take `COc1ccc2c(c1)c[n+](C)c1c3cc(OC)c(OC)cc3ccc21`: the GI50 is 0.559 µM and 1.42 µM in test [1]; 1.86 µM and 7.34 µM in test [3]; 1.51 µM and 5.1 µM in [10]; 1.95 µM and 6.15 µM in [7]; 2.3 µM and 7.11 µM in [8]. For the same molecule, the TGI in test [1] is > 100 µM and 12.4 µM; in test [2], 3.54 µM; in test [3] it was 3.71 µM and 19.9 µM; in [4], 29.4 µM; in [5], 2.65 µM and 4.96 µM; in [10] it was 2.98 µM and 20 µM. Besides, the TGI is 15 µM in test [6]; 3.5 µM and 13.9 µM in test [7]; 6.12 µM and 16.9 µM in [8].
With `COC12C(COC(N)=O)C3=C(C(=O)C(C)=C(N)C3=O)N1CC1C2N1C` (configuration not stated), the TGI in test [1] turned out to be 51.7 µM; in test [2], 5.81 µM; in test [3], 16.7 µM; in [4], 82.5 µM; in test [9], 75.7 µM; in test [5] it was 20.2 µM. Besides, the TGI turned out to be 28.1 µM in test [10], 35.4 µM in [6], 46.7 µM in test [7] and 31.2 µM in test [8].
Regarding `CC(=O)N1CCC(=O)/C(=C/c2ccccc2)C1`, the TGI was more than 100 µM in [2]; more than 100 µM in test [3]; 51.2 µM in test [4]; 32.9 µM in [5]; 93.5 µM in test [6]; more than 100 µM in test [7].
In the case of `CSc1nc(NC2OC(COC(C)=O)C(OC(C)=O)C(OC(C)=O)C2OC(C)=O)c(N=CC=Nc2c(NC3OC(COC(C)=O)C(OC(C)=O)C(OC(C)=O)C3OC(C)=O)nc(SC)n(C)c2=O)c(=O)n1C` (configuration not stated), the GI50 in [1] was more than 50 µM; in test [3], more than 50 µM; in [9], 13.2 µM; in [5], more than 50 µM; in test [10], more than 50 µM; in test [6], more than 50 µM. Moreover, the GI50 in [8] is 25.2 µM. Also, the TGI was more than 100 µM in test [1]; more than 100 µM in test [2]; more than 100 µM in test [3]; more than 100 µM in test [4]; 50 µM and 75.7 µM in test [9]; more than 100 µM in [5]. For the same molecule, the TGI in test [10] was more than 100 µM; in test [6] it was more than 50 µM; in test [7] it was 50 µM and 69.3 µM; in [8], 50 µM and > 96 µM.
On to `C[Si](C)(C)/C(I)=C/CO`, for which the TGI in [1] is 48.2 µM; in test [2], 48.9 µM; in test [4] it was 64.1 µM; in [5] it was 42.1 µM; in [6], 73.1 µM; in test [7], 39.9 µM. In [8], this molecule showed a TGI of 38.4 µM.
Turning to `C=CCN1CCC23c4c5ccc(O)c4OC2C(=NN=C2CCC4(O)C6Cc7ccc(O)c8c7C4(CCN6CC=C)C2O8)CCC3(O)C1C5` (configuration not stated), the TGI in test [1] was more than 100 µM; in test [2] it was 37.7 µM; in test [3], 43.2 µM; in test [4], more than 100 µM; in test [5], 41.1 µM; in test [6], 34.5 µM. Also, the TGI worked out at 33.1 µM in test [7] and 33.8 µM in [8].
Regarding `Cc1ccc(Nc2oc(-c3ccccc3)nc2[P+](c2ccccc2)(c2ccccc2)c2ccccc2)cc1`, the GI50 in test [1] is 0.547 µM; in test [3], 1.03 µM; in test [9], 1.41 µM; in [5] it was 0.833 µM; in test [10], 0.606 µM; in test [6], 0.299 µM. Further, the values for the GI50 in [7] and in test [8] were 1.59 µM and 0.625 µM, respectively. Further, the TGI in [1] came to 4.77 µM; in [3], 2.4 µM; in [9] it was 3.99 µM; in test [5] it was 2.11 µM; in [10], 1.97 µM; in test [6], 1 µM. The TGI in test [7] was 3.02 µM; in [8] it was 1.85 µM.
As for `CN(C)C/C=C/C(=O)Nc1cc2c(Nc3ccc(F)c(Cl)c3)ncnc2cc1O[C@H]1CCOC1`, the GI50 in [1] is 1.79 µM and 1.53 µM; in test [3] it was 1.14 µM and 1.58 µM; in test [9], 2.4 µM and 1.62 µM; in [5], 1.02 µM and 1.38 µM; in test [10], 0.603 µM and 0.882 µM; in test [6], 0.232 µM and 0.229 µM. The GI50 in [7] is 1.5 µM and 2.59 µM; in test [8], 1.38 µM and 1.51 µM. In addition, the TGI was 9.17 µM and > 7.56 µM in [1]; 3.14 µM and > 9.22 µM in test [3]; 13.3 µM and > 8.16 µM in test [9]; 3.62 µM and > 5.51 µM in test [5]; 7.37 µM and > 5.68 µM in [10]; 2.54 µM and > 4.93 µM in test [6]. The TGI in test [7] is 4.68 µM and 9.71 µM; in test [8], 2.93 µM and 4.13 µM.
Turning to `COC(=O)C1=CN(CC2=CC(=O)C(C)=CC2=O)C=C(C(=O)OC)C1c1cccc(OC)c1`, the GI50 was 2.38 µM in test [1]; 12.5 µM in test [3]; 8.66 µM in test [9]; 17.6 µM in test [5]; 5.8 µM in test [10]; 3.51 µM in test [6]. The figures for the GI50 in test [7] and in [8] were 8.25 µM and 24.3 µM, respectively. Also, the TGI was more than 21.9 µM in [1]; 32.6 µM in [3]; 44.9 µM in [9]; 42.7 µM in test [5]; 16.2 µM in test [10]; 12.3 µM in test [6]. Also, the values for the TGI in [7] and in test [8] were 23.3 µM and more than 100 µM, respectively.
Turning to `Nc1ccn(C2OC(CO)C(O)C2O)c(=O)n1` (configuration not stated), the GI50 in [1] is < 0.0107 µM and 0.00608 µM and 0.0148 µM; in [3] it was 1.69 µM; in test [4] it was 77.1 µM; in test [5], 0.829 µM; in test [10], 0.671 µM; in test [6], 3.74 µM. The GI50 in test [7] is 16.8 µM. The TGI is 344 µM in test [2]; > 100 µM and 429 µM and > 500 µM in [3]; 250 µM in [4]; more than 500 µM in test [9]; more than 500 µM in test [10]; > 100 µM and 500 µM and > 500 µM in test [6]. The same molecule came in with a TGI in test [8] of more than 500 µM.
For `COC(=O)C1=C(C(=O)OC)C2=S(SC3=C2CCCC3)S1` (configuration not stated), the TGI in test [1] was 19.7 µM; in [2], 34.2 µM; in [3], more than 100 µM; in test [5], 7.05 µM; in [6], 40.1 µM; in test [7], 74 µM. The TGI in test [8] was 85.6 µM.
For the molecule `COC(=O)C(C)NC(=O)C(CCSC)NC(=O)C(Cc1ccccc1)NC(=O)OC(C)(C)C` (stereo not drawn) (Boc-Phe-Met-Ala-OMe; configuration not given here), the GI50 in [1] was 2.63 µg/mL; in [3] it was 20.1 µg/mL; in test [5], 20.3 µg/mL; in test [10] it was 39.2 µg/mL; in [6], 26.6 µg/mL. In addition, the TGI is 36.4 µg/mL and > 100 µM in test [3]; more than 100 µM in test [9]; 43 µg/mL and > 100 µM in test [5]; more than 100 µM in test [10]; 52.7 µg/mL and > 100 µM in [6]; more than 100 µM in [7]. The molecule also registered a TGI in test [8] of more than 100 µM.
On to `CC1(C)N=C(N)N=C(N)N1c1ccc(CCCCc2ccc(Cl)c(S(=O)(=O)F)c2)c(Cl)c1`, for which the GI50 was 0.168 µM in test [1]; 0.922 µM in [3]; 9.71 µM in test [9]; 0.13 µM in test [5]; 0.431 µM in [10]; 2.22 µM in [6]. Further, the GI50 is 0.542 µM in [7] and 2.45 µM in test [8]. The TGI came to 8.65 µM in test [1]; 15.1 µM in test [3]; 34.2 µM in [9]; 17.5 µM in test [5]; 18.7 µM in test [10]; 15.1 µM in test [6]. Moreover, the figures for the TGI in test [7] and in test [8] were 13 µM and more than 33.6 µM, respectively.
